Source: BindingDB's records for patent US10428066 (PROXIMAGEN, LLC, 2019)

Target: T1, Membrane primary amine oxidase (Homo sapiens, UniProt Q16853)
T1 sequence (Q16853 whole entry): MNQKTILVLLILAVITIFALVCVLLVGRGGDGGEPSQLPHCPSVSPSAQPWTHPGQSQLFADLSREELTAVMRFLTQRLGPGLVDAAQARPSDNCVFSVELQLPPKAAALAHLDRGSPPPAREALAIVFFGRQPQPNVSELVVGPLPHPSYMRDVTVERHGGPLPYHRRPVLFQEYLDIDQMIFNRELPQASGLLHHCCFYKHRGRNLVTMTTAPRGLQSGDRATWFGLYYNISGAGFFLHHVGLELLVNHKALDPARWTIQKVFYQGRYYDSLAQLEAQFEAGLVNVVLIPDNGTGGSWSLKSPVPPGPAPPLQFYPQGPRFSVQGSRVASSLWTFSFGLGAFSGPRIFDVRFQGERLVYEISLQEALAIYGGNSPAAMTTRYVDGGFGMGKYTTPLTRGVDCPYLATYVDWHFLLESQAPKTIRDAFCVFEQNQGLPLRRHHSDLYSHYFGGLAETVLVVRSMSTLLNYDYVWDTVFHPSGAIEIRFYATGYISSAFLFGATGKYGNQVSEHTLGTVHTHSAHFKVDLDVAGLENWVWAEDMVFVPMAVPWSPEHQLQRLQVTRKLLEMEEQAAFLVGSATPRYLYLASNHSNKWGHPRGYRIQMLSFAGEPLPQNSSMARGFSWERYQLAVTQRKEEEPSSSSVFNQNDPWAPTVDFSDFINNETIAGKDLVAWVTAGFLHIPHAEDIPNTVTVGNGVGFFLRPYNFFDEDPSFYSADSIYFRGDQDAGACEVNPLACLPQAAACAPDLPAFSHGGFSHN
Assay: Biological Assay
Experimental: All primary assays were performed at RT. with purified recombinantly expressed human SSAO. […] In addition, secondary- and selectivity assays were performed using SSAO prepared from various tissues or purified rat recombinant SSAO. The enzyme activity was assayed with benzylamine as substrate by measuring either benzaldehyde production, using 14C-labeled substrate, or by utilizing the production of hydrogen peroxide in a horseradish peroxidase (HRP) coupled reaction. Briefly, test compounds were dissolved in dimethyl sulfoxide (DMSO) to a concentration of 10 mM. Dose-response measurements were assayed by either creating 1:10 serial dilutions in DMSO to produce a 7 point curve or by making 1:3 serial dilutions in DMSO to produce 11 point curves.

IC50: in the range around 125 nM
Structure (SMILES): Cc1cc(N)ncc1-c1cc2ccncc2n1-c1ccc(Cl)cc1 [5-[1-(4-Chlorophenyl)-1H-pyrrolo[2,3-c]pyridin-2-yl]-4-methylpyridin-2-amine; bis(trifluoroacetic acid)]
